The record followed here is US20260256140A1, “BIPHENYL COMPOUNDS CONTAINING SUBSTITUTED SULFIDE (SULFOXIDE) GROUPS AND USES THEREOF” (METISA BIOTECHNOLOGY CO., LTD, priority 2021, published 2026).

For the first assay, the system named is Mythimna separata. Kind of assay: Activity against Mythimna separata, Airbrush spray on maize leaf pieces. Particulars: 500 mg/L, 3 days after administration, 3rd-instar larvae. In kind it is in vivo. As for the experimental part:
Insecticidal activity determination experiments were conducted on several insects using the compound of the present invention and control compounds KC1, KC2, and KC3. Determination methods were described below. The compounds to be determined were each dissolved in a mixed solvent of acetone/methanol (1:1), and diluted using water containing 0.1% (wt) tween-80 to desired concentrations. With Mythimna separata and Plutella xylostella as targets, Airbrush spray method was adopted for activity determination. Determination Method: maize leaves were cut into 2 cm leaf pieces, and the front and back of each leaf piece were sprayed under an Airbrush spray treatment pressure of 10 psi (approximate to 0.7 kg/cm^2) and with a spray volume of 0.5 mL. After drying in the shade, 10 3rd-instar larvae were inoculated for each treatment, and each treatment was repeated for 3 times. After the treatment, the leaf pieces were put into an observation chamber at 25° C. and with a relative humidity of 60% to 70%, and the number of living larvae was investigated 3 days after the administration of the compounds, and the death rates were calculated.
For the compound `Cc1cc(F)c(-c2cc(SCC(F)(F)F)c(C)cc2F)cc1SCC(F)(F)F` [KC1], the “death rate for Mythimna separata” value is 0%.
For the compound `Cc1cc(F)c(-c2cc([S+]([O-])CC(F)(F)F)c(C)cc2F)cc1SCC(F)(F)F` (stereo not drawn) [KC2], the “death rate for Mythimna separata” value is listed as 0%.
The same measure, in the same setting: in the case of `Cc1cc(F)c(-c2cc([S+]([O-])CC(F)(F)F)c(C)cc2F)cc1[S+]([O-])CC(F)(F)F` (stereo not drawn) [KC3] it was 0%.

The subject of another assay is Tetranychus cinnabarinus. Kind of assay: Greenhouse acaricidal activity determination on Phaseolus vulgaris seedlings. The assay is classed as in vivo. To be noted: 1.25 mg/L, 3 days after administration, parallel comparison. The protocol:
Greenhouse acaricidal activity determination was carried out on the compounds of the present invention. A determination method was described below. […] Two true leaves of Phaseolus vulgaris seedlings were inoculated with adult Tetranychus cinnabarinus and a basic number was investigated. An entire seedling was then sprayed using a hand-held sprayer. Each treatment was repeated for 3 times. After the treatment, the seedlings were placed into a standard observation chamber, and the number of living mites was investigated 72 hours later, and the death rates were calculated. Parallel comparison experiments on acaricidal activity were conducted for Tetranychus cinnabarinus using the compounds 1.22, 1.23, and 1.24 and control compounds (3 days after the administration of the compounds), and the determination method was as described above; and the results were shown in Table 14: […]
For `Cc1cc(F)c(-c2cc(SCC(F)(F)F)c(C)cc2F)cc1SCC(F)(F)F` [KC1], the “Death Rate (%, 3 days after the administration of the compounds) 1.25 mg/L” value is 22.9%.
Same read-out and setting: in the case of `Cc1cc(F)c(-c2cc([S+]([O-])CC(F)(F)F)c(C)cc2F)cc1SCC(F)(F)F` (stereo not drawn) [KC2] it was 0%; in that of `Cc1cc(F)c(-c2cc([S+]([O-])CC(F)(F)F)c(C)cc2F)cc1[S+]([O-])CC(F)(F)F` (stereo not drawn) [KC3], 0%.

Still in this assay, the particulars now being: 2.5 mg/L, 3 days after administration, parallel comparison.
`Cc1cc(F)c(-c2cc(SCC(F)(F)F)c(C)cc2F)cc1SCC(F)(F)F` [KC1]: the “Death Rate (%, 3 days after the administration of the compounds) 2.5 mg/L” value came out at 52.0%.
Still for that read-out and setting: in the case of `Cc1cc(F)c(-c2cc([S+]([O-])CC(F)(F)F)c(C)cc2F)cc1SCC(F)(F)F` (stereo not drawn) [KC2] it was 50.0%.
Consider `Cc1cc(F)c(-c2cc([S+]([O-])CC(F)(F)F)c(C)cc2F)cc1[S+]([O-])CC(F)(F)F` (stereo not drawn) [KC3], for which the “Death Rate (%, 3 days after the administration of the compounds) 2.5 mg/L” value was 0%.

For another assay, the system named is Plutella xylostella. Kind of assay: Activity against Plutella xylostella, Airbrush spray on cabbage leaf discs. The assay is classed as in vivo. To be noted: 500 mg/L, 3 days after administration, 3rd-instar larvae. The protocol:
Insecticidal activity determination experiments were conducted on several insects using the compound of the present invention and control compounds KC1, KC2, and KC3. Determination methods were described below. The compounds to be determined were each dissolved in a mixed solvent of acetone/methanol (1:1), and diluted using water containing 0.1% (wt) tween-80 to desired concentrations. With Mythimna separata and Plutella xylostella as targets, Airbrush spray method was adopted for activity determination. Determination Method: cabbage leaves were formed into leaf discs having a diameter of 2 cm using a puncher, and the front and back of each leaf disc were sprayed under an Airbrush spray treatment pressure of 10 psi (approximate to 0.7 kg/cm^2) and with a spray volume of 0.5 mL. After drying in the shade, 10 3rd-instar larvae were inoculated for each treatment, and each treatment was repeated for 3 times. After the treatment, the leaf discs were placed into an observation chamber at 25° C. and with a relative humidity of 60% to 70%, and the number of living larvae was investigated 3 days after the administration of the compounds, and the death rates were calculated.
For `Cc1cc(F)c(-c2cc(SCC(F)(F)F)c(C)cc2F)cc1SCC(F)(F)F` [KC1], the “death rate for Plutella xylostella” value stood at 0%.
The same measure, in the same setting: in the case of `Cc1cc(F)c(-c2cc([S+]([O-])CC(F)(F)F)c(C)cc2F)cc1SCC(F)(F)F` (stereo not drawn) [KC2] it was 0%; in that of `Cc1cc(F)c(-c2cc([S+]([O-])CC(F)(F)F)c(C)cc2F)cc1[S+]([O-])CC(F)(F)F` (stereo not drawn) [KC3], 0%.
